{"source": "patent US10266537B2", "about": "“3-acetylenyl-pyrazole-pyrimidine derivative, and preparation method therefor and uses thereof” (Si Chuan University, priority 2015, dated 2019)", "test_in_all_cases": "Kinase inhibition assay (KinaseProfiler, 33P-ATP)", "format_in_all_cases": "biochemical", "key": {"PRAK(h)": {"biological_target": "PRAK(h) (Homo sapiens (Human), UniProt Q8IW41)", "sequence (Q8IW41 whole entry)": "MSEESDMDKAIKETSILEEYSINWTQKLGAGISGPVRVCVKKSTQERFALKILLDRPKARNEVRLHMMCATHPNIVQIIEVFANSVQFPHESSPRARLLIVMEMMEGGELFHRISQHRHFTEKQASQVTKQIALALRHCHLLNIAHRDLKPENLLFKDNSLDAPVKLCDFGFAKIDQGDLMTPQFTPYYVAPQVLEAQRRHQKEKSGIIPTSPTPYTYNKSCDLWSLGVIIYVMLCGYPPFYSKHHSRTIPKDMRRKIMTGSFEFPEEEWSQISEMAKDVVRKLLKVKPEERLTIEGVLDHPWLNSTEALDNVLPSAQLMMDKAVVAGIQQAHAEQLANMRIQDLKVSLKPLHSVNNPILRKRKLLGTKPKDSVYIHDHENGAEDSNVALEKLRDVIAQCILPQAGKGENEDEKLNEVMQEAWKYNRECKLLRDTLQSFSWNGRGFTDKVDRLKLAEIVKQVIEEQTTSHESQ", "details": "read-out: The percentage of the remaining active protein"}, "SGK(h)": {"biological_target": "SGK(h) (Homo sapiens (Human), UniProt O00141)", "sequence (O00141 whole entry)": "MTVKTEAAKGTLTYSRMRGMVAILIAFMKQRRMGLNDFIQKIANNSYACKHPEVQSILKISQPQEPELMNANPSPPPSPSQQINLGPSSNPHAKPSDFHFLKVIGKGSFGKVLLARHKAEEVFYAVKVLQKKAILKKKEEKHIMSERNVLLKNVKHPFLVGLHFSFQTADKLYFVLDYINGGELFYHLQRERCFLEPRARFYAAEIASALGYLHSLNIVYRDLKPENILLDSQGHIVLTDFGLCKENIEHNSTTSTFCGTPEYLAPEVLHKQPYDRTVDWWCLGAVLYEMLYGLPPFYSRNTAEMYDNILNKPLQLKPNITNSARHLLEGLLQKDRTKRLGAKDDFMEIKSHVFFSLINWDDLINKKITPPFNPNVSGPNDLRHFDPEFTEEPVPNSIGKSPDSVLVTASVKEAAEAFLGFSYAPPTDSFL", "details": "read-out: The percentage of the remaining active protein"}, "[1]": {"biological_target": "PI3 Kinase (p110a/p85a)(m) (Mus musculus (Mouse), UniProt P42337)", "details": "read-out: The percentage of the remaining active protein"}, "Lyn(m)": {"biological_target": "Lyn(m) (Mus musculus (Mouse), UniProt P25911)", "sequence (P25911 whole entry)": "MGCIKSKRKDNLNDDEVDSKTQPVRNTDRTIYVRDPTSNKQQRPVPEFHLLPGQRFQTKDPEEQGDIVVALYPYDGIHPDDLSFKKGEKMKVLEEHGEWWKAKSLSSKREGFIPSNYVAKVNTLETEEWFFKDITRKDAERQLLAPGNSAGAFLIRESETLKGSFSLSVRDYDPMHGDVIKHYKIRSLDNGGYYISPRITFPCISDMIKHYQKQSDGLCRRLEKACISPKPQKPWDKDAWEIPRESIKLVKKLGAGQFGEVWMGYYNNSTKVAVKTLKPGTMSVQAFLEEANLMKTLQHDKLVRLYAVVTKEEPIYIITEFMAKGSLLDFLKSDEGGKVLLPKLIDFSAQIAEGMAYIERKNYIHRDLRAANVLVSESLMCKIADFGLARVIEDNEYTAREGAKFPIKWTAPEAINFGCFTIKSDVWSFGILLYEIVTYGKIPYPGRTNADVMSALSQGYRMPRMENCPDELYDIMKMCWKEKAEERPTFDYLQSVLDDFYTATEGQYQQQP", "details": "read-out: The percentage of the remaining active protein"}, "CDK4/cyclinD3(h)": {"biological_target": "CDK4/cyclinD3(h) (Homo sapiens (Human), UniProt P11802)", "sequence (P11802 whole entry)": "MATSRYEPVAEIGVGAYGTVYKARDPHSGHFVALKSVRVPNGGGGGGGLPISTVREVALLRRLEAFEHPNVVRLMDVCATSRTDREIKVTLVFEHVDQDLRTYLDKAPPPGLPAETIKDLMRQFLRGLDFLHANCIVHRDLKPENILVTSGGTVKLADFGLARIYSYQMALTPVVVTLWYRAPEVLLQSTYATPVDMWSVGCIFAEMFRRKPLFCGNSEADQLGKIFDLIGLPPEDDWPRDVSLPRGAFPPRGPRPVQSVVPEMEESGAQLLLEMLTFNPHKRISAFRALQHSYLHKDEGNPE", "sequence (P30281 whole entry partner)": "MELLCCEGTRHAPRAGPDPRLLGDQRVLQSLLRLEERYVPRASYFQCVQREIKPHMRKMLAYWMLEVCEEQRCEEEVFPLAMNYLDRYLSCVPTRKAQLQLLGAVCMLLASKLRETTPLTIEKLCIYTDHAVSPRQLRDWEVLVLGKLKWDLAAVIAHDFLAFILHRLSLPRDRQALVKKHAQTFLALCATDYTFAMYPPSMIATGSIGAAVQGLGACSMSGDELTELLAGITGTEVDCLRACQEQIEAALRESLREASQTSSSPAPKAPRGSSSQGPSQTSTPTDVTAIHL", "details": "read-out: The percentage of the remaining active protein"}, "SRPK2(h)": {"biological_target": "SRPK2(h) (Homo sapiens (Human), UniProt P78362)", "details": "read-out: The percentage of the remaining active protein"}, "TGFBR1(h)": {"biological_target": "TGFBR1(h) (Homo sapiens (Human), UniProt P36897)", "details": "read-out: The percentage of the remaining active protein"}, "DMPK(h)": {"biological_target": "DMPK(h) (Homo sapiens (Human), UniProt Q09013)", "details": "read-out: The percentage of the remaining active protein"}, "SRPK1(h)": {"biological_target": "SRPK1(h) (Homo sapiens (Human), UniProt Q96SB4)", "sequence (Q96SB4 whole entry)": "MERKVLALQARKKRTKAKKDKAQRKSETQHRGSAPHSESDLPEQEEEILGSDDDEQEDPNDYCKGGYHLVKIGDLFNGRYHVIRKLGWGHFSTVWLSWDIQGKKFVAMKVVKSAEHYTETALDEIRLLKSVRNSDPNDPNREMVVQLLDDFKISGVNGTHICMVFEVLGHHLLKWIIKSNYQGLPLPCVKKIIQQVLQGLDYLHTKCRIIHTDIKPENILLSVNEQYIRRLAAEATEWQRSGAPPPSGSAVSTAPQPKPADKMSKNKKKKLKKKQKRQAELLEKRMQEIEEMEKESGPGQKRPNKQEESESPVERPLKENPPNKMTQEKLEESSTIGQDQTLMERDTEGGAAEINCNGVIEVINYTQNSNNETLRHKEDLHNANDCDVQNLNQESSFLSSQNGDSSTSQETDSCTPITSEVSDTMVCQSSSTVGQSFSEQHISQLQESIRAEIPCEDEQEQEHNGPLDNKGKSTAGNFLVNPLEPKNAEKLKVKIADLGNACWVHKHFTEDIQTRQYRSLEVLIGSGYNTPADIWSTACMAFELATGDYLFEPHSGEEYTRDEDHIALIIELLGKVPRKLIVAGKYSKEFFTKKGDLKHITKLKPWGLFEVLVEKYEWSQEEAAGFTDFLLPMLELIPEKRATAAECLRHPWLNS", "details": "read-out: The percentage of the remaining active protein"}, "PhKγ2(h)": {"biological_target": "PhKγ2(h) (Homo sapiens (Human), UniProt P15735)", "sequence (P15735 whole entry)": "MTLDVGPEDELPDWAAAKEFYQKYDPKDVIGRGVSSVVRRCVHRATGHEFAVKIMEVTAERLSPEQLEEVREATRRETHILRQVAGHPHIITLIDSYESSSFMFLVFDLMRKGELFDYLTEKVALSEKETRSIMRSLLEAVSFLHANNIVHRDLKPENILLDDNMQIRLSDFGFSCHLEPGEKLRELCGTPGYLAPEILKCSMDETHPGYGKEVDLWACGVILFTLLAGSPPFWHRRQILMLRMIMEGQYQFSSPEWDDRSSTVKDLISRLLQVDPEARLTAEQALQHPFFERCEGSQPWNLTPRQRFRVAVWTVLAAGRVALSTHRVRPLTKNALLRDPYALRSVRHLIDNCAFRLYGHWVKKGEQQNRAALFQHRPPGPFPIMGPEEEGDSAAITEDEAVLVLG", "details": "read-out: The percentage of the remaining active protein"}, "CDK3/cyclinE(h)": {"biological_target": "CDK3/cyclinE(h) (Homo sapiens (Human), UniProt Q00526)", "details": "read-out: The percentage of the remaining active protein"}, "PI3KC2a(h)": {"biological_target": "PI3KC2a(h) (Homo sapiens (Human), UniProt O00443)", "details": "read-out: The percentage of the remaining active protein"}, "ACK1": {"biological_target": "ACK1 (Homo sapiens (Human), UniProt Q07912)", "details": "ACK1(h), read-out: The percentage of the remaining active protein"}, "ATM(h)": {"biological_target": "ATM(h) (Homo sapiens (Human), UniProt Q13315)", "details": "read-out: The percentage of the remaining active protein"}, "DYRK1B(h)": {"biological_target": "DYRK1B(h) (Homo sapiens (Human), UniProt Q9Y463)", "sequence (Q9Y463 whole entry)": "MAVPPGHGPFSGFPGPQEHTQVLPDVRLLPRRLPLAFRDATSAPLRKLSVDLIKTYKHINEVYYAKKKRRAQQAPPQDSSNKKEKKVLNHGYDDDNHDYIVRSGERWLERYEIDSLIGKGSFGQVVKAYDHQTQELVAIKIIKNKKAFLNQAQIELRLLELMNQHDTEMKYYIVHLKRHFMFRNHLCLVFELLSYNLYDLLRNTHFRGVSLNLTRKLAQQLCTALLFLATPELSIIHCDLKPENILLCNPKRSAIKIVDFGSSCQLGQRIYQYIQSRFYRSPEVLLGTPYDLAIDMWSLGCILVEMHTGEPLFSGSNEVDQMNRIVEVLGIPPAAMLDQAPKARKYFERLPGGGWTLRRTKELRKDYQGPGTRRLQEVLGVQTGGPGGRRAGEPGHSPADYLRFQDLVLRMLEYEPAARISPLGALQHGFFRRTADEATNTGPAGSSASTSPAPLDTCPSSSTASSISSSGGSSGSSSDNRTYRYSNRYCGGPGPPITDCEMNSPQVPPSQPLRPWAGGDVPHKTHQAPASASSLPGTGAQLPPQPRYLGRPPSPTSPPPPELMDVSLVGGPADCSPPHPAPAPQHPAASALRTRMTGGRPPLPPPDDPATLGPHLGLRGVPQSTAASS", "details": "read-out: The percentage of the remaining active protein"}, "Abl(m)": {"biological_target": "Abl(m) (Mus musculus (Mouse), UniProt P00520)", "sequence (P00520 whole entry)": "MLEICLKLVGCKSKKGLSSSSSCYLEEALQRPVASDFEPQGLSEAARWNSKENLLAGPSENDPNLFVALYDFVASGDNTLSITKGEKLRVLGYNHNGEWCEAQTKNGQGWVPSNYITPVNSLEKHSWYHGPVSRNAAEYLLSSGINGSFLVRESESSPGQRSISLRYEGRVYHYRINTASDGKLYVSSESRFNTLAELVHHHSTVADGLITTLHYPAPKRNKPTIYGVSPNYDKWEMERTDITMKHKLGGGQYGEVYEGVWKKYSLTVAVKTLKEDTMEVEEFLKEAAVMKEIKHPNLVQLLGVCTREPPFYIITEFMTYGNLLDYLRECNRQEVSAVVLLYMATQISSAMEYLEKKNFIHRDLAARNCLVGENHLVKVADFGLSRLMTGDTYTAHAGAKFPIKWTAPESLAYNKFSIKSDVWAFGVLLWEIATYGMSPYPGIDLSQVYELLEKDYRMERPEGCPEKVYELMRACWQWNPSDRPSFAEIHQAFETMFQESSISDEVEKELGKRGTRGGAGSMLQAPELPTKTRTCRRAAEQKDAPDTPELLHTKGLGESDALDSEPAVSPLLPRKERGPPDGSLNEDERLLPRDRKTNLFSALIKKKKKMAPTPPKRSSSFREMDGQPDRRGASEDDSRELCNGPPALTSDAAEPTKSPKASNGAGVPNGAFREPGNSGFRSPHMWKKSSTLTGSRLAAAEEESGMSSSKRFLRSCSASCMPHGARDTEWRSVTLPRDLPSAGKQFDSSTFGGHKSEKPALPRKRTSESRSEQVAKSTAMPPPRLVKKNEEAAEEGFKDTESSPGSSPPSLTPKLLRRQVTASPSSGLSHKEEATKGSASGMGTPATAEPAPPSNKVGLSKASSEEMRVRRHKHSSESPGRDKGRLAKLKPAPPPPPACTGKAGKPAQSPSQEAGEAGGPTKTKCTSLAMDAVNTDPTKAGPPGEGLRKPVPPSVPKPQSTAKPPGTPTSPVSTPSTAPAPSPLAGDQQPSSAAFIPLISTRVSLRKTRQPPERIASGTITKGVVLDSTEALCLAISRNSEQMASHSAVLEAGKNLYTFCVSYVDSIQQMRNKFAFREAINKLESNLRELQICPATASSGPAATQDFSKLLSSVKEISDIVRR", "details": "read-out: The percentage of the remaining active protein"}, "Abl (H396P)(h)": {"biological_target": "Abl (H396P)(h) (Homo sapiens (Human), UniProt P00519, H396P)", "details": "read-out: The percentage of the remaining active protein"}, "CDK6/cyclinD3(h)": {"biological_target": "CDK6/cyclinD3(h) (Homo sapiens (Human), UniProt Q00534)", "details": "read-out: The percentage of the remaining active protein"}, "Rsk1(h)": {"biological_target": "Rsk1(h) (Homo sapiens (Human), UniProt Q15418)", "details": "read-out: The percentage of the remaining active protein"}, "[2]": {"biological_target": "PI3 Kinase (p110a/p65a)(h) (Homo sapiens (Human), UniProt P42336)", "details": "read-out: The percentage of the remaining active protein"}, "Wee1(h)": {"biological_target": "Wee1(h) (Homo sapiens (Human), UniProt P30291)", "details": "read-out: The percentage of the remaining active protein"}, "cKit (V560G)": {"biological_target": "cKit (V560G) (Homo sapiens (Human), UniProt P10721, V560G)", "details": "cKit(V560G)(h), read-out: The percentage of the remaining active protein"}, "JAK1": {"biological_target": "JAK1 (Homo sapiens (Human), UniProt P23458)", "details": "JAK1(h), read-out: The percentage of the remaining active protein"}, "Mer": {"biological_target": "Mer (Homo sapiens (Human), UniProt Q12866)", "details": "Mer(h), read-out: The percentage of the remaining active protein"}, "Aurora-A(h)": {"biological_target": "Aurora-A(h) (Homo sapiens (Human), UniProt O14965)", "details": "read-out: The percentage of the remaining active protein"}, "Aurora-B(h)": {"biological_target": "Aurora-B(h) (Homo sapiens (Human), UniProt Q96GD4)", "details": "read-out: The percentage of the remaining active protein"}}, "data": [{"molecule": "Cc1ccc(NC(=O)c2ccc(C)c(C(F)(F)F)c2)cc1C#Cc1nn([C@H]2CC[C@H](O)CC2)c2ncnc(N)c12", "note": "[Compound 93]", "values": [{"measurement": "remaining activity at 10 µM", "setting": "PRAK(h)", "value": 77, "unit": "%"}, {"measurement": "remaining activity at 10 µM", "setting": "SGK(h)", "value": 90, "unit": "%"}, {"measurement": "remaining activity at 10 µM", "setting": "[1]", "value": 90, "unit": "%"}, {"measurement": "remaining activity at 10 µM", "setting": "Lyn(m)", "value": -1, "unit": "%"}, {"measurement": "remaining activity at 10 µM", "setting": "CDK4/cyclinD3(h)", "value": 86, "unit": "%"}, {"measurement": "remaining activity at 10 µM", "setting": "SRPK2(h)", "value": 107, "unit": "%"}, {"measurement": "remaining activity at 10 µM", "setting": "TGFBR1(h)", "value": 105, "unit": "%"}, {"measurement": "remaining activity at 10 µM", "setting": "DMPK(h)", "value": 91, "unit": "%"}, {"measurement": "remaining activity at 10 µM", "setting": "SRPK1(h)", "value": 106, "unit": "%"}, {"measurement": "remaining activity at 10 µM", "setting": "PhKγ2(h)", "value": 113, "unit": "%"}, {"measurement": "remaining activity at 10 µM", "setting": "CDK3/cyclinE(h)", "value": 93, "unit": "%"}, {"measurement": "remaining activity at 10 µM", "setting": "PI3KC2a(h)", "value": 92, "unit": "%"}, {"measurement": "remaining activity at 10 µM", "setting": "ACK1", "value": 4, "unit": "%"}, {"measurement": "remaining activity at 10 µM", "setting": "ATM(h)", "value": 102, "unit": "%"}, {"measurement": "remaining activity at 10 µM", "setting": "DYRK1B(h)", "value": 92, "unit": "%"}, {"measurement": "remaining activity at 10 µM", "setting": "Abl(m)", "value": -2, "unit": "%"}, {"measurement": "remaining activity at 10 µM", "setting": "Abl (H396P)(h)", "value": 1, "unit": "%"}, {"measurement": "remaining activity at 10 µM", "setting": "CDK6/cyclinD3(h)", "value": 120, "unit": "%"}, {"measurement": "remaining activity at 10 µM", "setting": "Rsk1(h)", "value": 11, "unit": "%"}, {"measurement": "remaining activity at 10 µM", "setting": "[2]", "value": 92, "unit": "%"}, {"measurement": "remaining activity at 10 µM", "setting": "Wee1(h)", "value": 95, "unit": "%"}, {"measurement": "remaining activity at 10 µM", "setting": "cKit (V560G)", "value": 0, "unit": "%"}, {"measurement": "remaining activity at 10 µM", "setting": "JAK1", "value": 3, "unit": "%"}, {"measurement": "remaining activity at 10 µM", "setting": "Mer", "value": 0, "unit": "%"}, {"measurement": "remaining activity at 10 µM", "setting": "Aurora-A(h)", "value": 64, "unit": "%"}, {"measurement": "remaining activity at 10 µM", "setting": "Aurora-B(h)", "value": 475, "unit": "%"}]}]}
